Laboratory results from US6599893B2, “Cephalosporin antibiotics and prodrugs thereof” (Essential Therapeutics, Inc., priority 2000, dated 2003).
Converted amounts (≈) assume the structure as drawn. Where two headings read alike, the source gives them in different places.

What was measured:
[1] = test system: Staphylococcus aureus 76 (MRSA, β-lactamase producing); experiment: Broth microdilution MIC, S. aureus 76; format: cell-based; details: Staphylococcus aureus 76 (MRSA, β-lactamase producing); for MIC: read-out: MIC S. a. 76
Protocol: (§1) Compounds were evaluated for antimicrobial activity against a panel of bacterial strains using a broth microdilution assay performed as recommended by the NCCLS (NCCLS (National Committee for Clinical Laboratory Standards). 1993. Methods for dilution antimicrobial susceptibility tests for bacteria that grow aerobically. NCCLS Document M7-A3, 1993. In: NCCLS Antimicrobial Susceptibility Testing, 3rd Ed.)
(§2) The minimum inhibitory concentration (MIC) is defined as the lowest concentration of a compound that prevents the growth of the bacteria.

[2] = test system: Enterococcus faecalis ATCC 29212; experiment: Broth microdilution MIC, E. faecalis ATCC 29212; format: cell-based; details: Enterococcus faecalis ATCC 29212; for MIC: ATCC29212, read-out: MIC E. f. 29212
Protocol: as §1, §2

[3] = Human serum binding estimated from serum effect on MIC (HSB*); format: in vitro ADME
From the text: An estimate of human serum binding (HSB*) was obtained for some compounds using the MIC values against S. aureus ATCC 29213 determined in growth medium (GM) and in a 1:1 mixture of growth medium and human serum (GM+HS):
HSB*=(MICGM+HS−MICGM)/MICGM 100%

[4] = test system: Staphylococcus aureus COL (MRSA, non-β-lactamase producing); experiment: Broth microdilution MIC, S. aureus COL; format: cell-based; details: Staphylococcus aureus COL (MRSA, non-β-lactamase producing); for MIC: read-out: MIC S. a. COL
Protocol: as §1, §2

[5] = Human serum binding by ultrafiltration; format: in vitro ADME
Protocol: Binding of several representative compounds of this invention in pooled human serum was determined using ultrafiltration. Compounds were incubated in serum for 10 minutes at 37° C. in a shaking water bath. Serum ultrafiltrate was accomplished by centrifugation (Amicon Centrifree) for 20 minutes at 25° C. Compound content in the ultrafiltrate was quantified by HPLC. An ultrafilrate obtained by following the same procedure with no added compound was used as a standard.

[6] = test system: Enterococcus faecium ATCC 35667; experiment: Broth microdilution MIC, E. faecium ATCC 35667; format: cell-based; details: Enterococcus faecium ATCC 35667; for MIC: ATCC35667, read-out: MIC E. f. 35667
Protocol: as §1, §2

[7] = test system: Staphylococcus aureus Smith (MSSA); experiment: Broth microdilution MIC, S. aureus Smith; format: cell-based; details: Staphylococcus aureus Smith (MSSA); for MIC: read-out: MIC S. a. Smith
Protocol: as §1, §2

S. aureus strain Smith = experiment: Experimental infection of mice, ED50; format: in vivo, Swiss-Webster mice; details: 50% efficacious dose, S. aureus Smith, mice challenged intraperitoneally, compound subcutaneously at 0 and 2 h, total dose, 72 h survival
Protocol: Staphylococcus aureus strain Smith (ATCC 13709, penicillin-susceptible) or strain 76 (methicillin-resistant) was cultured overnight at 37° C. in brain-heart infusion broth (BHIB). The following morning, a portion of the culture was transferred to fresh BHIB and incubated for an additional 4-5 hours at 37° C. The cells were harvested by centrifugation, washed twice with PBS, and adjusted to the desired inoculum amount. The cell suspension was mixed with an equal volume of sterile 14% hog-gastric mucin (Comber K. R.; Osborne C. D.; Sutherland R.: Comparative effects of amoxicillin and ampicillin in the treatment of experimental mouse infections. Antimicrobial Agents and Chemotherapy 7(2):179-185, 1975). The inoculum was kept in an ice bath until used (preferably in less than one hour).
Male Swiss-Webster mice were challenged intraperitoneally with 0.5 mL of a bacterial suspension of S. aureus strain Smith (LD50). Test compounds were administered subcutaneously in 0.1 mL volumes immediately after inoculation and 2 hours later. […] The total dose associated with 50% survival (ED50) was determined using the probit method (Pasiello, A. P., J. M. Essigmann, and G. N. Wogan.: Rapid and accurate determination of median lethal dose (LD50) and its error with a small computer. J Toxicol. Environ. Health. 3:797-809, 1977).

[8] = test system: Staphylococcus aureus ATCC 29213 (MSSA); experiment: Broth microdilution MIC, S. aureus ATCC 29213; format: cell-based; details: Staphylococcus aureus ATCC 29213 (MSSA); for MIC: read-out: MIC S. a. 29213
Protocol: as §1, §2

[9] = MIC against S. aureus ATCC 29213 in growth medium vs 1:1 growth medium and human serum
[10] = pooled human serum, ultrafiltration, 10 minutes at 37° C.

Structure (SMILES): NC(=O)CSCc1cnccc1SC1=C(C(=O)O)N2C(=O)[C@@H](NC(=O)/C(=N\O)c3nc(N)sc3Cl)[C@H]2SC1 [Compound 22]
- MIC S. a. 76 [1]: 4 µg/mL (≈ 6.49 µM)
- MIC E. f. 29212 [2]: 0.5 µg/mL (≈ 0.812 µM)
- HSB*, human serum binding calculated using serum effect on MIC [3]: 88%
- MIC S. a. COL [4]: 4 µg/mL (≈ 6.49 µM)
- HSB, human serum binding [5]: 94%
- MIC E. f. 35667 [6]: 1 µg/mL (≈ 1.62 µM)
- MIC S. a. Smith [7]: 0.25 µg/mL (≈ 0.406 µM)
- ED50, mg/kg (95% C.I.) (S. aureus strain Smith): 1.15 (0.7-1.6) mg/kg
- MIC S. a. 29213 [8]: 0.5 µg/mL (≈ 0.812 µM)

Structure (SMILES): Nc1nc(/C(=N/O)C(=O)N[C@@H]2C(=O)N3C(C(=O)O)=C(Sc4ccncc4CSCCNC=O)CS[C@H]23)c(Cl)s1 [Compound 27]
- MIC S. a. 76 [1]: 4 µg/mL (≈ 6.35 µM)
- MIC E. f. 29212 [2]: 0.25 µg/mL (≈ 0.397 µM)
- MIC S. a. COL [4]: 2 µg/mL (≈ 3.17 µM)
- HSB, human serum binding [5]: 94%
- MIC E. f. 35667 [6]: 1 µg/mL (≈ 1.59 µM)
- MIC S. a. Smith [7]: 0.25 µg/mL (≈ 0.397 µM)
- ED50, mg/kg (95% C.I.) (S. aureus strain Smith): 2.27 (1.0-5.5) mg/kg
- MIC S. a. 29213 [8]: 0.25 µg/mL (≈ 0.397 µM)

Structure (SMILES): Cc1nnsc1SC1=C(C(=O)O)N2C(=O)[C@@H](NC(=O)C(=NO)c3nc(N)sc3Cl)C2SC1 (stereo partly drawn) [Compound 34, (7R)-7-[2-(2-Amino-5-chlorothiazol-4-yl)-2-hydroxyiminoacetylamino]-3-(4-methyl-[1,2,3]thiadiazol-5-ylsulfanyl)-8-oxo-5-thia-1-aza-bicyclo[4.2.0]oct-2-ene-2-carboxylic acid]
- MIC [1]: 2 µg/mL (≈ 3.75 µM)
- MIC [2]: 0.25 µg/mL (≈ 0.468 µM)
- HSB*, human serum binding calculated using serum effect on MIC [3, 9]: — (98%)
- MIC [4]: 2 µg/mL (≈ 3.75 µM)
- MIC [6]: 2 µg/mL (≈ 3.75 µM)
- MIC [7]: 0.125 µg/mL (≈ 0.234 µM)
- MIC [8]: 0.125 µg/mL (≈ 0.234 µM)

Structure (SMILES): Nc1nc(/C(=N/O)C(=O)N[C@@H]2C(=O)N3C(C(=O)O)=C(Sc4cccc5nncn45)CS[C@H]23)c(Cl)s1 [Compound 35]
- MIC S. a. 76 [1]: 4 µg/mL (≈ 7.23 µM)
- MIC E. f. 29212 [2]: 0.25 µg/mL (≈ 0.452 µM)
- HSB*, human serum binding calculated using serum effect on MIC [3, 9]: — (88%)
- MIC S. a. COL [4]: 4 µg/mL (≈ 7.23 µM)
- MIC E. f. 35667 [6]: 4 µg/mL (≈ 7.23 µM)
- MIC S. a. Smith [7]: 0.25 µg/mL (≈ 0.452 µM)
- MIC S. a. 29213 [8]: 0.5 µg/mL (≈ 0.904 µM)

Structure (SMILES): Nc1nnc(SC2=C(C(=O)O)N3C(=O)[C@@H](NC(=O)C(=NO)c4nc(N)sc4Cl)C3SC2)s1 (stereo partly drawn) [Compound 36, (7R)-7-[2-(2-amino-5-chlorothiazol-4-yl)-2-hydroxyiminoacetylamino]-3-(5-amino-[1,3,4]thiadiazol-2-ylsulfanyl)-8-oxo-5-thia-1-aza-bicyclo[4.2.0]oct-2-ene-2-carboxylic acid]
- MIC [1]: 2 µg/mL (≈ 3.74 µM)
- MIC [2]: 0.25 µg/mL (≈ 0.467 µM)
- HSB*, human serum binding calculated using serum effect on MIC [3, 9]: 94%
- MIC [4]: 1 µg/mL (≈ 1.87 µM)
- HSB, human serum binding [5, 10]: 90%
- MIC [6]: 1 µg/mL (≈ 1.87 µM)
- MIC [7]: 0.25 µg/mL (≈ 0.467 µM)
- MIC [8]: 0.25 µg/mL (≈ 0.467 µM)

Structure (SMILES): Nc1nc(C(=NO)C(=O)N[C@@H]2C(=O)N3C(C(=O)O)=C(Sc4nnc(N)s4)CSC23)ns1 (stereo partly drawn) [Compound 37, (7R)-7-[2-(5-Amino-[1,2,4]thiadiazol-3-yl)-2-hydroxyimino-acetylamino]-3-(5-amino-[1,3,4]thiadiazol-2-ylsulfanyl)-8-oxo-5-thia-1-aza-bicyclo[4.2.0]oct-2-ene-2-carboxylic acid]
- MIC [1]: 4 µg/mL (≈ 7.98 µM)
- MIC [2]: 2 µg/mL (≈ 3.99 µM)
- HSB*, human serum binding calculated using serum effect on MIC [3, 9]: 50%
- MIC [4]: 4 µg/mL (≈ 7.98 µM)
- HSB, human serum binding [5, 10]: 79%
- MIC [6]: 1 µg/mL (≈ 1.99 µM)
- MIC [7]: 0.125 µg/mL (≈ 0.249 µM)
- MIC [8]: 0.25 µg/mL (≈ 0.498 µM)

Structure (SMILES): Nc1nc(C(=NO)C(=O)N[C@@H]2C(=O)N3C(C(=O)O)=C(Sc4cnns4)CSC23)ns1 (stereo partly drawn) [Compound 39, (7R)-7-[2-(5-Amino-[1,2,4]thiadiazol-3-yl)-2-hydroxyimino-acetylamino]-8-oxo-3-([1,2,3]thiadiazol-5-ylsulfanyl)-5-thia-1-aza-bicyclo[4.2.0]oct-2-ene-2-carboxylic acid]
- MIC [1]: 8 µg/mL (≈ 16.4 µM)
- MIC [2]: 1 µg/mL (≈ 2.06 µM)
- HSB*, human serum binding calculated using serum effect on MIC [3, 9]: — (94%)
- MIC [4]: 8 µg/mL (≈ 16.4 µM)
- MIC [6]: 2 µg/mL (≈ 4.11 µM)
- MIC [7]: 0.125 µg/mL (≈ 0.257 µM)
- MIC [8]: 0.125 µg/mL (≈ 0.257 µM)

Structure (SMILES): Nc1nc(C(=NO)C(=O)N[C@@H]2C(=O)N3C(C(=O)O)=C(Sc4nnc[nH]4)CSC23)c(Cl)s1 (stereo partly drawn) [Compound 40, (7R)-7-[2-(2-Amino-5-chlorothiazol-4-yl)-2-hydroxyimino-acetylamino]-8-oxo-3-(4H-[1,2,4]triazol-3-ylsulfanyl)-5-thia-1-aza-bicyclo[4.2.0]oct-2-ene-2-carboxylic acid]
- MIC [1]: 8 µg/mL (≈ 15.9 µM)
- MIC [2]: 1 µg/mL (≈ 1.99 µM)
- HSB*, human serum binding calculated using serum effect on MIC [3, 9]: 88%
- MIC [4]: 8 µg/mL (≈ 15.9 µM)
- HSB, human serum binding [5, 10]: 92%
- MIC [6]: 4 µg/mL (≈ 7.95 µM)
- MIC [7]: 0.5 µg/mL (≈ 0.994 µM)
- MIC [8]: 0.25 µg/mL (≈ 0.497 µM)

Structure (SMILES): Nc1nc(C(=NO)C(=O)N[C@@H]2C(=O)N3C(C(=O)O)=C(Sc4nncs4)CSC23)c(Cl)s1 (stereo partly drawn) [Compound 41, (7R)-7-[2-(2-Amino-5-chlorothiazol-4-yl)-2-hydroxyiminoacetylamino]-8-oxo-3-([1,3,4]thiadiazol-2-ylsulfanyl)-5-thia-1-aza-bicyclo[4.2.0]oct-2-ene-2-carboxylic acid]
- MIC [1]: 1 µg/mL (≈ 1.92 µM)
- MIC [2]: 0.25 µg/mL (≈ 0.481 µM)
- HSB*, human serum binding calculated using serum effect on MIC [3, 9]: 98%
- MIC [4]: 1 µg/mL (≈ 1.92 µM)
- HSB, human serum binding [5, 10]: 91%
- MIC [6]: 0.5 µg/mL (≈ 0.962 µM)
- MIC [7]: 0.125 µg/mL (≈ 0.24 µM)
- MIC [8]: 0.125 µg/mL (≈ 0.24 µM)

Structure (SMILES): Nc1nnc(SC2=C(C(=O)O)N3C(=O)[C@@H](NC(=O)C(=NOCCF)c4nc(N)sc4Cl)C3SC2)s1 (stereo partly drawn) [Compound 42, (7R)-7-[2-(2-Amino-5-chlorothiazol-4-yl)-2-(2-fluoroethoxyimino)-acetylamino]-3-(5-amino-[1,3,4]thiadiazol-2-ylsulfanyl)-8-oxo-5-thia-1-aza-bicyclo[4.2.0]oct-2-ene-2-carboxylic acid]
- MIC [1]: 2 µg/mL (≈ 3.44 µM)
- MIC [2]: 1 µg/mL (≈ 1.72 µM)
- HSB*, human serum binding calculated using serum effect on MIC [3, 9]: 75%
- MIC [4]: 2 µg/mL (≈ 3.44 µM)
- HSB, human serum binding [5, 10]: 65%
- MIC [6]: 4 µg/mL (≈ 6.88 µM)
- MIC [7]: 0.25 µg/mL (≈ 0.43 µM)
- MIC [8]: 0.5 µg/mL (≈ 0.86 µM)

Structure (SMILES): NCCSCc1cnccc1SC1=C(C(=O)O)N2C(=O)[C@@H](NC(=O)/C(=N\O)c3nc(N)sc3Cl)[C@H]2SC1 [RWJ 54428, reference compound]
- MIC S. a. 76 [1]: 1 µg/mL (≈ 1.66 µM)
- MIC E. f. 29212 [2]: 0.06 µg/mL (≈ 0.0996 µM)
- HSB*, human serum binding calculated using serum effect on MIC [3, 9]: 67%
- MIC S. a. COL [4]: 0.5 µg/mL (≈ 0.83 µM)
- HSB, human serum binding [5, 10]: 84%
- MIC E. f. 35667 [6]: 0.25 µg/mL (≈ 0.415 µM)
- MIC S. a. Smith [7]: 0.125 µg/mL (≈ 0.208 µM)
- ED50, mg/kg (95% C.I.) (S. aureus strain Smith): 1.0 (0.7-1.6) mg/kg
- MIC S. a. 29213 [8]: 0.25 µg/mL (≈ 0.415 µM)
